Columns and labels:
human thrombin = test: test b) C2 (PT) against human thrombin; format: biochemical; conditions: PT = prothrombin time
Description: b) Measurement of Thrombin Inhibition
The procedure of method a) is repeated except that human thrombin (0.005 Units/ml) and the chromogenic substrate S-2238 (KabiVitrum AB, 7 μM) are employed.
c) Measurement of Anticoagulant Activity
An in vitro assay whereby human, rat or rabbit venous blood is collected and added directly to a sodium citrate solution (3.2 g/100 ml, 9 parts blood to 1 part citrate solution). Blood plasma is prepared by centrifugation (1000 g, 15 minutes) and stored at 2-4° C. Conventional prothrombin time (PT) tests are carried out in the presence of various concentrations of a test compound and the concentration of test compound required to double the clotting time, hereinafter referred to as CT2, is determined. In the PT test, the test compound and blood plasma are incubated at 37° C. for 10 minutes. Tissue thromboplastin with calcium (Sigma Limited, Poole, England) is added and fibrin formation and the time required for a clot to form are determined.

Row | Structure (SMILES) | melting point | C2 (PT) against human thrombin (human thrombin)
1 | O=C(c1ccc(-c2ccncc2)cc1)N1CCN(S(=O)(=O)c2cc3cc(Cl)ccc3o2)CC1 [Example 1, 1-(5-Chlorobenzo[b]furan-2-ylsulphonyl)-4-[4-(4-pyridyl)benzoyl]piperazine] |  | 15 µM
2 | O=C(c1ccc(-c2ccncn2)cc1)N1CCN(S(=O)(=O)c2cc3cc(Cl)ccc3[nH]2)CC1 [Example 4, 1-(5-Chloroindol-2-ylsulphonyl)-4-[4-(4-pyrimidyl)benzoyl]piperazine] | 229 to 230 °C | 
3 | O=C(c1ccc(-c2ccnnc2)cc1)N1CCN(S(=O)(=O)c2cc3cc(Cl)ccc3[nH]2)CC1 [Example 5, 1-(5-Chloroindol-2-ylsulphonyl)-4-[4-(4-pyridazinyl)benzoyl]piperazine] | 170 to 172 °C | 
4 | O=C(c1ccc(-n2ccnc2)cc1)N1CCN(S(=O)(=O)c2cc3cc(Cl)ccc3[nH]2)CC1 [Example 6, 1-(5-Chloroindol-2-ylsulphonyl)-4-[4-(1-imidazolyl)benzoyl]piperazine] | 155 to 165 °C | 
5 | O=C(c1ccc(-c2ccncc2)cc1)N1CCN(S(=O)(=O)c2nc3ccc(Cl)cc3[nH]2)CC1 [Example 8, 1-(5-chlorobenzimidazol-2-ylsulphonyl)-4-[4-(4-pyridyl)benzoyl]piperazine] | 242 to 244 °C | 

More lines, main results first:

Row | melting point | Structure (SMILES) | C2 (PT) against human thrombin (human thrombin)
6 | 185 to 188 °C | O=C(c1ccc(-c2ccncc2)cc1)N1CCN(S(=O)(=O)c2cc3cc(Cl)ccc3[nH]2)CC1 [Example 3, 1-(5-chloroindol-2-ylsulphonyl)-4-[4-(4-pyridyl)benzoyl]piperazine] | 
7 | 231 to 234 °C | O=C(c1ccc(-c2ccncc2)cc1)N1CCN(S(=O)(=O)c2cc3ccc(Cl)cc3[nH]2)CC1 [Example 7, 1-(6-chloroindol-2-ylsulphonyl)-4-[4-(4-pyridyl)benzoyl]piperazine] | 
